According to PMC12751000, “Dual Agonist/Antagonist Modulation of α9-Containing Nicotinic Acetylcholine Receptors by 2‑Ammoniumethyl Ethers of Stilbenol and Stilbenol Analogues” (Journal of Medicinal Chemistry, 2025):
Entries after “also recorded” stand apart in the source; their conditions may differ. Read-outs that look alike come from different tables or passages of the source. Where a SMILES comes first, the peptide text is derived from it. Bridges are numbered along the chain shown (N, C = ends).

How the values were obtained:
hα7 = details: ref: more recent studies, citation number not given, cited from earlier work
[1] = system: BzATP-induced release of IL-1β from human monocytic THP-1 cells; assay: BzATP-induced IL-1β release by LPS-primed human monocytic THP-1 cells (ELISA); format: cell-based; details: for Effect on the inhibitory effect of ACh on BzATP-induced IL-1β release: LPS 1 μg/mL 5 h, BzATP 100 μM 40 min; for Effect on BzATP-induced IL-1β release in the absence of ACh: LPS-primed THP-1
Experimental: THP-1 cells were primed with lipopolysaccharide (LPS; 1 μg/mL, 5 h) followed by stimulation with the P2X7 receptor agonist BzATP (2′/3′-O-(4-benzoylbenzoyl)-adenosine-5′-triphosphate, tri(triethylammonium) salt) for 40 min to induce IL-1β release, which was quantified by ELISA.
Experiments on human monocytic THP-1 cells (German Collection of Microorganisms and Cell Cultures, Braunschweig, Germany, Cat# ACC16) were performed as described before. […] The supernatants were collected and stored for later IL-1β measurements using the Human IL-1β/IL-1F2 DuoSet ELISA from R&D Systems (Minneapolis MN, USA, Cat# DY201). Cell viability was assessed by measuring lactate dehydrogenase (LDH) activity in the supernatants using the CytoTox 96 Non-Radioactive Cytotoxicity Assay (Promega, Madison WI, USA; Cat# G1780). LDH activities were expressed as a percentage of total LDH activity from lysed control cells. Data on the BzATP-induced IL-1β release and LDH activity were analyzed using SPSS (Version 29.0.2.0, IBM, Armonk, NY, United States) and visualized using Inkscape version 0.48.5 r10040 (Free and Open Source Software licensed under the GPL). The data were analyzed first by the Friedman test.

α7-nAChR = details: read-out: α7-nAChR affinity (Ki); ref: previously reported, citation number not given; cited from earlier work
chick α7 nAChRs = details: cited from earlier work
hα9α10 nAChRs [2] = molecular target: T1, hα9α10 nAChRs (Homo sapiens, UniProt Q9GZZ6+Q9UGM1); assay: Two-electrode voltage clamp, compound-evoked currents (compound applied alone) at hα9α10 nAChRs in Xenopus laevis oocytes; format: cell-based; details: compound applied alone (300 pM to 30 μM), normalized to response at highest concentration
T1 construct: host or cells: Xenopus laevis oocytes, cRNA-injected (α9:α10 cRNA ratio 1:1)
T1 sequence (Q9UGM1 26-479 limits assumed): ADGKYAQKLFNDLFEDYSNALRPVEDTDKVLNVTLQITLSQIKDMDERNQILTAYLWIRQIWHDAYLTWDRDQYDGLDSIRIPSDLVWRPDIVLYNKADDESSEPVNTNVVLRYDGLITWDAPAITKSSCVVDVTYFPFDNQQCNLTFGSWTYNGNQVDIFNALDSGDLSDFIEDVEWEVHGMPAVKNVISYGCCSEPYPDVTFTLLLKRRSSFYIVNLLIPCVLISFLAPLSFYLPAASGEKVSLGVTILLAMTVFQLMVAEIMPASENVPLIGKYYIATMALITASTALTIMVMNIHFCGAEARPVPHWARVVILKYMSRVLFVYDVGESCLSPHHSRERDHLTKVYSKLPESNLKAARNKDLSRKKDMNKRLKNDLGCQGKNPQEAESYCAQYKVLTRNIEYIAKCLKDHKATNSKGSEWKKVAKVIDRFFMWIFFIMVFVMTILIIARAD
T1 sequence (Q9GZZ6 25-450): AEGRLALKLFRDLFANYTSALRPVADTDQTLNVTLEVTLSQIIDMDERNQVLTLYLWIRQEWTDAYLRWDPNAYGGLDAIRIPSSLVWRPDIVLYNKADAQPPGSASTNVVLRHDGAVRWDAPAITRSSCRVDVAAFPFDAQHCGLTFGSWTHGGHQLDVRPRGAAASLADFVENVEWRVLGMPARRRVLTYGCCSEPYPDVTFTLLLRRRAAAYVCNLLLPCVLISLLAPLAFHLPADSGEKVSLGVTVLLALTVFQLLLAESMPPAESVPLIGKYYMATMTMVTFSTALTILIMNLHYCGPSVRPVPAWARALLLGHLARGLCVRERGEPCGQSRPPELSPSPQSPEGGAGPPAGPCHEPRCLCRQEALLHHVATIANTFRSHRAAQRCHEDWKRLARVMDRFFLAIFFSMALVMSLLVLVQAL
Excerpt: (§1) The protocols were approved by the Animal Ethics Committees of the Victor Chang Cardiac Research Institute, Sydney, and the University of Wollongong (project number AE 20/17). Human α9 and α10 nAChR clones were obtained from OriGene (Rockville, MD, USA) and subcloned into the pT7TS vector. The human α7 nAChR clone, in the plasmid pMXT, was kindly provided by J. Lindstrom (University of Pennsylvania, USA). Constructs of human nAChR subunits were linearized and used for in vitro cRNA transcription with the SP6/T7 mMessage mMachine transcription kit (AMBION, Forster City, CA, USA).
(§2) The cRNA concentration was verified spectrophotometrically and by gel electrophoresis.
(§3) Electrophysiological recordings were conducted 2–5 days after cRNA injection using a HiClamp automated two-electrode voltage-clamp screening system (MultiChannel Systems GmbH, Reutlingen, Germany) with a holding potential of –80 mV. To prevent the activation of endogenous Ca^2+-activated chloride channels due to the Ca^2+ permeability of α9-containing nAChRs, oocytes were preincubated with 100 μM BAPTA-AM for approximately 3 h.
Concentration–response experiments assessing compound-evoked currents were performed by initially superfusing α9-containing nAChRs oocytes with ND115 solution. Test compounds were then applied at concentrations ranging from 300 pM to 30 μM, followed by a 3 min washout period.

hα9α10 nAChRs [3] = molecular target: T1, hα9α10 nAChRs; assay: Two-electrode voltage clamp, inhibition of ACh-evoked currents at hα9α10 nAChRs expressed in Xenopus laevis oocytes; format: cell-based
Excerpt: as §1, §2, §3
For concentration–response experiments assessing modulation of ACh-evoked responses, oocytes were initially superfused with ND96 or ND115 solution, depending on the receptor subtype. […] After ACh application, a 3 min washout was performed. Oocytes were then incubated with the test compound for 5 min, followed by coapplication of the compound and ACh in a continuously flowing bath solution. All compounds were prepared in ND96 or ND115 with 0.1% bovine serum albumin (BSA).

hα9 nAChRs [4] = molecular target: T2, hα9 nAChRs (Homo sapiens, UniProt Q9UGM1); assay: Two-electrode voltage clamp, inhibition of ACh-evoked currents at hα9 nAChRs in Xenopus laevis oocytes; format: cell-based
T2 construct: host or cells: Xenopus laevis oocytes, cRNA-injected
T2 sequence (Q9UGM1 26-479 limits assumed): as the sequence (Q9UGM1 26-479 limits assumed) above

hα9 nAChRs [5] = molecular target: T2, hα9 nAChRs; assay: Two-electrode voltage clamp, compound-evoked currents at hα9 nAChRs in Xenopus laevis oocytes; format: cell-based; details: compound applied alone
hα7 nAChRs [6] = molecular target: T3, hα7 nAChRs (Homo sapiens, UniProt P36544); assay: Two-electrode voltage clamp, compound-evoked currents at hα7 nAChRs in Xenopus laevis oocytes; format: cell-based; details: compound applied alone
T3 construct: host or cells: Xenopus laevis oocytes, cRNA-injected (10 ng)
T3 sequence (P36544 23-502): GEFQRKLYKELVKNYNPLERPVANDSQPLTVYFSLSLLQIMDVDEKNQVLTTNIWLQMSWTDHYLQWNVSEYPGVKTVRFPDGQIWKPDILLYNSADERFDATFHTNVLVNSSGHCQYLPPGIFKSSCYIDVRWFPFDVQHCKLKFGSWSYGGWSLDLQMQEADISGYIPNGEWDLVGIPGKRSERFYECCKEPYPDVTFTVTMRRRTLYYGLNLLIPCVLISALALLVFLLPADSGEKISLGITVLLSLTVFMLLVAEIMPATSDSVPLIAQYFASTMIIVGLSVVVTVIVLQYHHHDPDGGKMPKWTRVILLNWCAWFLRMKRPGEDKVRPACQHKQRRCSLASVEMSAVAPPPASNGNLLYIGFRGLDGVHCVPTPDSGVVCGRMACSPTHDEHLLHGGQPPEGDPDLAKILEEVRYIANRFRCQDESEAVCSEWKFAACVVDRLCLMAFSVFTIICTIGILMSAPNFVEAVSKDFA
Experimental: Additionally, five compounds of the series were tested on the homomeric hα7 and hα9 nAChRs.
as §1, §2, §3

hα7 nAChRs [7] = molecular target: T3, hα7 nAChRs; assay: Two-electrode voltage clamp, inhibition of ACh-evoked currents at hα7 nAChRs in Xenopus laevis oocytes; format: cell-based
hα9α10 nAChRs [8] = molecular target: T1, hα9α10 nAChRs; assay: cell-based

In the case of CC[N+](CC)(CC)CCOc1ccc(/C=C/c2ccccc2)cc1 [Compound 1, 2-triethylammonium ethyl ether of 4-stilbenol], the IC50 (hα7; 200 μM ACh) is listed as 41 nM, the IC50 (hα7; 1 mM ACh) is listed as 1990 nM and the “Effect on the inhibitory effect of ACh on BzATP-induced IL-1β release” value (“Effect on the inhibitory effect of ACh” below) ([1]; compound 100 pM + ACh 10 μM) is listed as “efficiently antagonized the inhibitory effect of ACh”. For the same compound, the “Effect on BzATP-induced IL-1β release in the absence of ACh” value (“Effect on BzATP-induced IL-1β release” below) ([1]; compound 100 pM) was “only slightly reduced”, the “Effect on the inhibitory effect of ACh” value ([1]; compound 100 nM + ACh 10 μM) was “efficiently antagonized the inhibitory effect of ACh” and the “Effect on BzATP-induced IL-1β release” value ([1]; compound 100 nM) was “only slightly reduced; also recorded: failed to reduce IL-1β release”. The Ki (α7-nAChR) was 104 nM, the IC50 (chick α7 nAChRs; chick α7, 100 μM ACh, ref: citation number not given) was 90 to 110 nM and the “Currents evoked when applied alone” value (chick α7 nAChRs; wild-type chick α7 nAChRs, ref: previous findings, citation number not given) was “did not evoke currents”.
For C[N+](C)(CCOc1ccc(COc2ccccc2)cc1)C1CCCCC1.[I-] [Compound 22, N,N-Dimethyl-N-(2-(4-(phenoxymethyl)phenoxy)ethyl)cyclohexanaminium Iodide], the EC50 (hα9α10 nAChRs [2]) was “failed to activate; also recorded: lacked agonist activity; also recorded: No activity”, the “IC50 ratio to Cpd 1” value (hα9α10 nAChRs [3]) was 0.3 and the “n H (Hill coefficient of inhibition)” value (hα9α10 nAChRs [3]; 6 μM ACh) was 1.7. For the same compound, the IC50 (hα9α10 nAChRs [3]; 6 μM ACh, 5 min preincubation with compound, holding potential −80 mV) was 16 nM, the “IC50 ratio to Cpd 1” value (hα9 nAChRs [4]) was 0.1 and the “n H (Hill coefficient of inhibition)” value (hα9 nAChRs [4]; 50 μM ACh) was 1.5. For the same compound, the IC50 (hα9 nAChRs [4]; 50 μM ACh, 5 min preincubation) was 26.2 nM, the EC50 (hα9 nAChRs [5]) was “did not elicit any current; also recorded: lacked agonist activity; also recorded: No activity” and the EC50 (hα7 nAChRs [6]) was “lacked agonist activity; also recorded: No activity”. For the same compound, the “IC50 ratio to Cpd 1” value (hα7 nAChRs [7]) was 0.8, the “n H (Hill coefficient of inhibition)” value (hα7 nAChRs [7]; 100 μM ACh) was 1.5 and the IC50 (hα7 nAChRs [7]; 100 μM ACh, 5 min preincubation) was 336 nM. The “Effect on the inhibitory effect of ACh” value ([1]; compound 100 pM + ACh 10 μM) was “efficiently antagonized the inhibitory effect of ACh”, the “Effect on BzATP-induced IL-1β release” value ([1]; compound 100 pM) was “minor reduction” and the “Effect on the inhibitory effect of ACh” value ([1]; compound 100 nM + ACh 10 μM) was “mild antagonistic effects”. The “Effect on BzATP-induced IL-1β release” value ([1]; compound 100 nM) was “effectively and significantly inhibited”.
With CC[C@H](C)[C@@H]1NC(=O)[C@H](CC(=O)O)NC(=O)[C@@H]2CCCN2C(=O)[C@H](CC(N)=O)NC(=O)[C@H](CC(N)=O)NC(=O)[C@H](C(C)C)NC(=O)[C@H](CO)NC(=O)[C@@H]2CSSC[C@H](NC(=O)CN)C(=O)N[C@@H](CSSC[C@@H](C(N)=O)NC1=O)C(=O)N[C@@H](CO)C(=O)N[C@@H](Cc1c[nH]cn1)C(=O)N1CCC[C@H]1C(=O)N[C@@H](C)C(=O)N2 [α-conotoxin Mr1.1] (H-GCCSHPACSVNNPDIC-NH2; disulfide 2-8, 3-16) the “Hill coefficient (n H)” value (hα9α10 nAChRs [8]) was 1.3.
For CC[C@H](C)[C@@H]1NC(=O)[C@H](CC(=O)O)NC(=O)[C@@H]2CCCN2C(=O)[C@H](CC(N)=O)NC(=O)[C@H](CC(N)=O)NC(=O)[C@H](C(C)C)NC(=O)[C@H](CO)NC(=O)[C@@H]2CSSC[C@H](NC(=O)CN)C(=O)N[C@@H](CSSC[C@@H](C(N)=O)NC1=O)C(=O)N[C@@H](CO)C(=O)N[C@@H](Cc1cnc[nH]1)C(=O)N1CCC[C@H]1C(=O)N[C@@H](C)C(=O)N2 [α-conotoxin Mr1.1] (H-GCCSHPACSVNNPDIC-NH2; disulfide 2-8, 3-16), the IC50 (hα9α10 nAChRs [8]) was 82.9 nM.
